From US11807895B2, “High-throughput drug and genetic assays for cellular transformation” (THE BROAD INSTITUTE, INC., priority 2015, dated 2023)
Entries after “also recorded” stand apart in the source; their conditions may differ. Structures can show the parent of a compound that is named as a salt.

How the values were obtained:
[1] = system: fibroblasts transformed with TERT, SV40 T-antigen, and H-RAS; assay: GILA (growth in low attachment) drug screen, ATP/CellTiter-Glo viability; assay type: cell-based, human; conditions: 633 kinase inhibitors and FDA-approved drugs screened at 30 μM or 10 μM, 5 days
From the text: To identify drugs specifically inhibiting the oncogenic state of fibroblasts transformed with TERT, SV40 T-antigen, and H-RAS (Hahn W C, et al. (1999) Creation of human tumour cells with defined genetic elements. Nature 400:464-468.), GILA was used as a primary screen and growth on standard high-attachment plates as a counterscreen.
Transformed fibroblast cells were maintained as subconfluent monolayers, trypsinized, and seeded in 96-well plates (for analytical assays, FIG. 14) or in 384-well white plates (for screens, FIG. 3). The cell concentration was optimized to 1000 cells/well in 100 μl medium (for 96-well plate) or 50 cells/well in 30 μl growth medium (for 384-well plate). Two types of plates were used in the screens: high-attachment conditions (Corning, 3704) and Ultra Low-attachment (Sumitomo, PrimeSurface384U). Cells were seeded automatically using the liquid rapid dispenser Metrix WellMate (Thermo). Two small molecule libraries (NIH Clinical Collection 1-2013 and Kinase Inhibitor Focused Library) were transferred to each microplate, at 100 nl drug per well, to final concentration of 30 μM or 10 μM, respectively, by using the robotic transfer system (Seiko Epson) and pin array (V&P). Controls were added by multichannel pipette. After 5 days of incubation at 37° C. in 5% CO2, the cells were assayed for ATP content. […] The secondary screen was conducted similarly, except that an HP D300 Digital Liquid Dispenser and T8 dispenseheads (HP) was used to add 4 different concentrations of small molecules to the cells.
Crosstalk corrected values from EnVision reader were used to normalize the luminescence from each wells.

[2] = system: ascites-derived ovarian cancer cells from patients; assay: Ex-vivo GILA drug sensitivity of patient-derived cancer cells; assay type: cell-based, human; conditions: for inhibitory activity in ex-vivo GILA assay: 5 patients who failed multiple lines of treatment, 5000 cells per well, 72 hours; for dose dependence of viability in ex-vivo GILA: ovary cancer patient derived cells
Method: Patient-derived ovarian cancer cells are sensitive to FDA-approved drugs identified in the GILA-based screen. […] Immediately after procurement, ascites samples were processed and 5000 cells per well were flow-sorted into 96-well microtiter plates with low or high-attachment surfaces containing 100 μl of growth medium per well.
Cell viability was measured with the CellTiter-Glo (Promega) luminescent assay, using the EnVision Plate Reader (PerkinElmer) or the SpectraMax M5 Multi-Mode Microplate Reader (Molecular Devices). For high-attachment growth, tissue culture-treated 96-well clear plates (#3997, Corning) were used, while for the GILA assay low attachment surface plates (#3474, Corning) of 96-well clear plates were used for 3 to 5 days. Later the cells were moved to 96-Well Solid White Polystyrene Microplate (#3362, 14 Corning) for reading luminescence signal. To avoid bleeding of luminescence between the wells, every other well left empty in the solid white microplate. 30 μl of CTG reagent was used for 384-well microplates, and 100 μl for 96-well microplates. The cells were moderately shaken for 5 minutes in the reagent, followed by incubation for 20 minutes to ensure cell lysis. No background signal was detected from wells containing only culture medium.
Under an institutional review board approved protocol, freshly discarded ascites from patients with advanced stage ovarian cancers was collected from 5 individuals. Ascites fluid was immediately transferred on ice for further processing. Samples were spun down and red blood cells were removed with hypotonic lysis using ACK lysing buffer (Life Technologies). Cells were filtered through a 40 μm mesh and washed in PBS with 2% FBS and subjected to staining for FACS.
Cells were prepared per standard protocols, stained with Calcein-AM, CD45-FITC, EPCAM-PE and CD24-PE/Cy7 and incubated for 20 minutes on ice. Cells were washed with […] prior to flow-sorting. After doublet discrimination and compensation for spectral overlap, single, viable cells, negative for CD45 and positive for EPCAM and CD24 were flow-sorted into wells (96 well plates) prepared with growth 15 medium. Samples were sorted on a BD FACSAria SORP and analyzed using BD FACSDiva Software (BD Biosciences).

IL-6 = conditions: Hong et al. 2012: LPS-stimulated mouse macrophages and TG-injected mice; cited from earlier work
[3] = listed as Azelastine hydrochloride, hydrochloride

| Structure (SMILES) | hit in GILA-based drug screen (inhibits growth in low attachment, less pronounced effect on high attachment) [1] | further results |
| --- | --- | --- |
| Cc1cccc(-c2[nH]ncc2-c2ccc3ncccc3n2)n1 [RepSox] | identified and validated in the drug screen | – |
| CN1CCCC(n2nc(Cc3ccc(Cl)cc3)c3ccccc3c2=O)CC1 (stereo not drawn) [azelastine hydrochloride] | identified and validated in the drug screen | inhibitory activity in ex-vivo GILA assay [2, 3]: highly effective at inhibiting growth; inhibitory activity in ex-vivo GILA assay ([2]; listed as azelastine, hydrochloride): demonstrated inhibitory activity; dose dependence of viability in ex-vivo GILA ([2]; hydrochloride): dose dependent response; dose dependence of viability in ex-vivo GILA [2, 3]: concentration-dependent viability |
| C=C1/C(=C\C=C2/CCC[C@]3(C)[C@@H]([C@H](C)/C=C/[C@@H](O)C4CC4)CC[C@@H]23)C[C@@H](O)C[C@@H]1O [calcipotriol] | top hits | – |
| CC(=O)Oc1ccccc1C(=O)Nc1ncc([N+](=O)[O-])s1 [nitazoxanide] | top hits; also recorded: identified and validated in the drug screen | inhibitory activity in ex-vivo GILA assay [2]: demonstrated inhibitory activity; IL-6 suppression (IL-6): suppresses IL-6 |
| COc1ccc(-c2cc(=O)c3c(OC)c(OC)c(OC)c(OC)c3o2)cc1OC [nobiletin] | identified and validated in the drug screen | – |
| CC(C)CC(N(C)C)C1(c2ccc(Cl)cc2)CCC1 (stereo not drawn) [sibutramine] | top hits | – |
